In article PMC4890880 (ACS infectious diseases, 2016):
Like-named read-outs stand apart in the source and are kept apart here.

Assays:
[1] = tested on: HepG2-A16-CD81EGFP cells; settings: human, 50 uM
[2] = tested on: HepG2-A16-CD81EGFP cells; experiment: cells; settings: Homo sapiens, HepG2, read-out: % inhibition
[3] = tested on: HepG2-A16-CD81EGFP cells; experiment: cells; settings: Homo sapiens, HepG2, read-out: % inhibition; remark: listed apart in the source
[4] = tested on: Plasmodium berghei (Pb-Luc) exoerythrocytic-stage parasites; experiment: microbe, parasite or virus in culture
[5] = read-out: Inhibition% @ 50 uM rep1
[6] = read-out: Inhibition% @ 50 uM rep2

Row | SMILES | HepG2 Tox% @ 50 uM rep2 [1] [%] | inhibition at 50 µM [2] [%] | inhibition at 50 µM [3] [%] | inhibition at 50 µM [4, 5] [%] | inhibition at 50 µM [4, 6] [%] | HepG2 Tox% @ 50 uM rep1 [1] [%]
1 | COCCN(C(=O)Cc1cccs1)C(C(=O)NCc1ccc(OC)cc1)c1ccc(C(C)C)cc1 (stereo not drawn) [MMV666105] | 100 | 98.8 | 99.9 | 104 | 105 | 
2 | COc1cccc(C2(C)Nc3ccccc3-c3nc4ccccc4n32)c1 (stereo not drawn) [MMV396719] | 100 | 97 | 99.7 | 104 | 106 | 
3 | Cc1cc(NC(=O)c2cccc(C(F)(F)F)c2)n(-c2nc(-c3ccc4c(c3)OCO4)cs2)n1 [MMV396681] | -14 | -14.6 | -14.2 | 1.11 | -36 | -15
4 | CCCC(c1nnnn1C1CCCCC1)N1CCN(C(=O)c2ccco2)CC1 (stereo not drawn) [MMV666093] |  | -5.78 | -2.45 | 52 | 19 | -6
5 | O=C(Nc1ccccc1O)c1ccc(-c2ccc(Cl)cc2Cl)o1 [MMV665948] |  | 15.3 | -7.03 | 8 | -61 | 15
6 | COc1ccc(C2N(C)c3ccccc3N2C)cc1 [MMV666075] |  | 76.8 | 84.3 | 101 | 98 | 
7 | Cc1c(C)n(CC(O)CNC2CCCCC2C)c2ccccc12 (stereo not drawn) [MMV665806] |  | 31.3 | 47.6 | 90 | 92 | 
8 | Cc1ccc(CN2CCC(C(=O)Nc3ccc(-c4cc5ccccc5[nH]4)cc3)CC2)o1 [MMV666071] |  | 42.7 | 43.9 | 98 | 96 | 
9 | O=C1CC(O)(C(F)(F)C(F)(F)F)Oc2ccccc21 (stereo not drawn) [MMV000972] |  | 96.7 | 97.9 | 103 | 105 | 
10 | CCCCc1ccc(NS(=O)(=O)c2cc3c4c(c2)CCN4C(=O)CC3)cc1 [MMV001255] |  | 67.8 | 77.1 | 98 | 92 | 
11 | CCN(Cc1ccccc1)C1CCN(Cc2cc(Br)ccc2O)CC1 [MMV019127] |  | 82.2 | 86 | 102 | 104 | 
12 | COc1cccc(-c2nn(C)c3sc(C(=O)NCCN4CCN(c5ccccc5F)CC4)cc23)c1 [MMV019064] |  | 53.8 | 82.3 | 103 | 104 | 
13 | Cc1ccc(Nc2nc(NCCO)c3ccccc3n2)cc1C [MMV001038] |  | 94.2 | 96.1 | 102 | 102 | 
14 | CCOc1ccc(C2N(C)c3ccccc3N2C)cc1 [MMV075490] |  | 88 | 89.5 | 103 | 102 | 
15 | Oc1ccc(Cl)cc1CNc1nc2ccccc2[nH]1 [MMV665850] |  | 98.1 | 98.7 | 103 | 104 | 
16 | Cc1cc(C)cc(Nc2cc(C)nc3nc(C(F)(F)F)nn23)c1 [MMV011259] |  | 29.5 | 54.7 | 100 | 99 | 30
17 | CSc1ccccc1C(=O)Nc1nc(-c2ccccn2)cs1 [MMV001246] |  | 82.2 | 86.4 | 101 | 104 | 
